Data as given in patent publication US8486900B2, “Method for preparing a Centella asiatica extract rich in madecassoside and in terminoloside” (Bayer Consumer Care AG, priority 2002, dated 2013).
“And” between values parts separate entries of the source, which are not always exact repeats. Equal entries are not always repeated.

Tests used:
NFκB = experiment: TNF-α-induced activation of NFκB in nuclei of normal human fibroblasts; assay type: cell-based; conditions: for NFκB (AU), mean / NFκB (AU), single values / NFκB, % control: TNF-α 25 ng/ml; for NFκB, % control: control with TNF-α = 100
Procedure: This study makes it possible to evaluate the effects of the mixture according to the invention on the activation of NFκB, using a very sensitive specific method based on measuring the binding of the transcription factor NFκB to the consensus oligonucleotide sequence immobilized on a plastic support. Bound NFκB is secondarily recognized by a specific anti-NFκB antibody. This assay was carried out on isolated nuclei of normal human fibroblasts. The culture medium is DMEM, which comprises: • 2 mM L-glutamine • 50 IU/ml penicillin, 50 μg/ml streptomycin • 10% (v/v) fetal calf serum for the preculture and then a switch to serum-free medium The fibroblasts were precultured in 175 cm^2 flasks in DMEM medium containing 10 vol % of FCS until confluency, and the culture medium was then replaced with serum-free DMEM medium. The cells were then cultured in the presence of the products to be assayed or of references, for 1 hour. The proinflammatory agent […] (TNF-α, at 25 ng/ml final concentration; Sigma T0157) was then added to the culture medium and the cells were again incubated for 1 hour at 37° C. and 5% CO2. After incubation, the cells were harvested on ice and the cell nuclei of the various samples were isolated using the Sigma NUC-101 kit according to the protocol recommended by the supplier. The amount of proteins of each nuclear extract was determined using the Biorad 500-0116 assay kit. The amount of activated NFκB bound to the specific oligonucleotide was measured on the same amount of nuclear extract of each sample, i.e. 50 μl, diluted 50/50, after visualization using a specific anti-NFκB antibody. […] AU represents the arbitrary units of NFκB in the extract; this is the difference between the measured value and the background noise.

[1] = Immunomodulatory activity
IL-8 = experiment: Effect of interferon-γ on production and release of IL-8 by normal human keratinocytes; assay type: cell-based
Procedure: (§1) The study is carried out on normal human keratinocytes. The cells are first treated with 4 concentrations of interferon-gamma (IFN-γ), for 24 hours.
(§2) Next, the inflammation mediators are measured in the control cultures and cultures treated with IFN-γ, by assaying IL-8 and TNF-α in the culture supernatants and by assaying cell proteins. The method of measurement used is the Coomassie blue test; it is a standardized method.
(§3) The effects of interferon-gamma (IFN-γ) on the production and release of epidermal cytokines was studied on normal human keratinocytes (strain K02-1H4). 4 concentrations of IFN-g were tested:
The effects of IFN-γ on the production and release of IL-8 were studied under the same experimental conditions.

TNF-α = experiment: Effect of interferon-γ on production of TNF-α by normal human keratinocytes; assay type: cell-based; conditions: for TNF-α, mean: normal human keratinocytes, 24 h
Procedure: as §1, §2

PGE-2 = experiment: Effect of interferon-γ on release of PGE-2 by normal human keratinocytes; assay type: cell-based
Procedure: as §3
The effects of IFN-γ on the production and release of PGE-2 was studied under the same experimental conditions as previously described (Table 31).

IL-1α = experiment: Effect of interferon-γ on intracellular IL-1α production by normal human keratinocytes; assay type: cell-based; set-up: multiplication of the basal amount of IL-1α: dose or concentration left out as unconfirmed
Text: The effects of interferon-gamma (IFN-γ) on the production and release of epidermal cytokines was studied on normal human keratinocytes (strain K02-1H4).

MMP-1 = experiment: TNF-α-induced production of MMP-1 by human fibroblasts in collagen gel (dermis equivalent); assay type: cell-based; conditions: for Production of MMP-1, (+) TNF-α, mean: TNF-α 10 ng/ml, 24 h pretreatment + 24 h; for decrease in the amount of MMP-1: relative to (+)TNF-α control
Procedure: (§4) An in vitro experimental approach based on measuring the amounts of MMP-1 and of TIMP-1 released into the culture media by human fibroblasts cultured in the absence and in the presence of the products, and stimulated with TNF-α, is proposed. The study was carried out on human fibroblast cultures established from skin biopsies according to the explant method. The fibroblasts are cultured, according to the techniques used in the laboratory, in DMEM medium (sold under the name Invitrogen™ by the company Life Technologies) supplemented with fetal calf serum (10% FCS) and with antibiotics, at […] in a humid air-CO2 (95%-5%) atmosphere.
Human dermal fibroblasts cultured as a monolayer are detached from their support by trypsinization and suspended in complete medium. After counting, the cell suspension is diluted in culture medium and added, in defined proportions, to a mixture of concentrated culture medium (1.76×DMEM), fetal calf serum (FCS) and type I collagen (acetic acid extract from rat tail tendons). The mixture is then poured, under cold conditions, into 24-well plates in a proportion of 1 ml/well. The dermous equivalents are then placed at 37° C. and incubated for 72 h, in an air-CO2 (95%/5%) atmosphere. The gels gradually contract under the action of the fibroblasts.
72 hours after seeding, the culture medium is removed and replaced with new medium containing the various products being studied (“preventative” treatment). The gels are returned to the incubator at 37° C. and incubated, for 24 hours, in an air-CO2 (95%/5%) atmosphere.
(§5) After incubation, the plates are emptied. The cultures are rinsed and then exposed to a solution of TNF-α (10 ng/ml) in the absence (control cultures) or in the presence (treated cultures) of the various concentrations of each product being studied. After the addition of TNF-α, the cultures are returned to the incubator at 37° C. for 24 h. At the end of incubation, the media are removed, centrifuged and aliquoted for assaying of MMP-1 and of TIMP-1.
(§6) The study was carried out on human fibroblasts cultured in a three-dimensional gel of collagen (dermous equivalent).
1. Treatment of cells for 24 h, before induction of MMP-1 with TNF-α.
2. Induction of MMP-1 by the addition of TNF-α (10 ng/ml). Incubation for 24 h.
(§7) 3. Measurement of cell viability and of the amounts of MMP-1 in the control and treated culture supernatants.

human fibroblasts = experiment: Cytotoxicity, Neutral Red assay on human fibroblasts; conditions: for Viability (24 h) / Viability (48 h): DMSO 1%
Procedure: A stock solution of the product was prepared beforehand in DMSO and then diluted in culture medium in order to obtain the various test solutions (final concentration of DMSO: 1%). A broad range of 8 concentrations [from 5 to 1000 μg/ml] was initially studied in order to close in the maximum NonCytotoxic Dose (NCD).
A stock solution of the product was prepared beforehand in DMSO and then diluted in culture medium in order to obtain the various test solutions (final concentration of the DMSO: 1%). A broad range of 8 concentrations (between […]) was studied on human fibroblasts in order to close in the maximum NonCytotoxic Dose (NCD).

TIMP-1 = experiment: Production of TIMP-1 by human fibroblasts in collagen gel stimulated with TNF-α; assay type: cell-based; conditions: for Production of TIMP-1, (+) TNF-α, mean: TNF-α 10 ng/ml
Procedure: as §4, §5
The amount of TIMP-1, an inhibitor specific for MMP-1, was also measured in the supernatants of the cultures treated with asiaticoside or the madecassoside-terminoloside mixture.

[2] = system: human fibroblasts cultured in a three-dimensional gel of collagen; experiment: Cell viability (Neutral Red assay) of collagen gel fibroblast cultures after TNF-α; assay type: cell-based; conditions: TNF-α 10 ng/ml, 0.2-1.0 mg/ml
Procedure: as §6, §7
Cell Viability (Neutral Red Assay)

[3] = K02-1H4, interferon-γ 1000 U/ml
[4] = K02-1H4, interferon-γ 2000 U/ml

## O=C(O)c1cc(/N=N/c2ccc(S(=O)(=O)Nc3ccccn3)cc2)ccc1O [sulfasalazine, Sulfasalazine]
NFκB; 5 mM sulfasalazine
  NFκB (AU), mean: 4.19 AU
  NFκB (AU), single values: 4.93 AU and 4.01 AU and 2.88 AU
  NFκB, % control: 44%

## terminolic acid
[1]
  immunomodulatory activity: no immunomodulatory activity

## Interferon-γ: interferon-gamma used as irritative agent to stimulate keratinocytes
IL-8; Example 8, interferon 1000 U/ml
  multiplication of the basal amount of IL-8: 26 fold
IL-8; Example 8, interferon 2000 U/ml
  multiplication of the basal amount of IL-8: 38 fold
IL-8; Example 8, normal human keratinocytes, 24 h, interferon-γ 100 U/ml
  IL-8, mean: 0.980 pg/μg proteins
IL-8; Example 8, normal human keratinocytes, 24 h, interferon-γ 500 U/ml
  IL-8, mean: 1.301 pg/μg proteins
IL-8; Example 8, normal human keratinocytes, 24 h, interferon-γ 1000 U/ml
  IL-8, mean: 1.991 pg/μg proteins
IL-8; Example 8, normal human keratinocytes, 24 h, interferon-γ 2000 U/ml
  IL-8, mean: 2.917 pg/μg proteins
IL-8; Example 12, K02-1H4, interferon-γ 100 U/ml
  IL-8, mean: 0.252 pg/μg proteins
IL-8; Example 12, K02-1H4, interferon-γ 500 U/ml
  IL-8, mean: 0.350 pg/μg proteins
IL-8; Example 12, K02-1H4, interferon-γ 1000 U/ml
  IL-8, mean: 0.516 pg/μg proteins
IL-8; Example 12, K02-1H4, interferon-γ 2000 U/ml
  IL-8, mean: 0.671 pg/μg proteins
TNF-α; interferon 1000 U/ml
  multiplication of the basal amount of TNF-α: 3.3 fold
TNF-α; interferon 2000 U/ml
  multiplication of the basal amount of TNF-α: 4.5 fold
TNF-α; interferon-γ 100 U/ml
  TNF-α, mean: 3.198 pg/μg proteins
TNF-α; interferon-γ 500 U/ml
  TNF-α, mean: 8.605 pg/μg proteins
TNF-α; interferon-γ 1000 U/ml
  TNF-α, mean: 10.773 pg/μg proteins
TNF-α; interferon-γ 2000 U/ml
  TNF-α, mean: 14.545 pg/μg proteins
PGE-2; 100 to 2000 U/ml
  stimulation of the production and release of PGE-2: not capable of stimulating
PGE-2; K02-1H4, interferon-γ 100 U/ml
  Extracellular PGE-2, mean: 3.60 pg/μg proteins
PGE-2; K02-1H4, interferon-γ 500 U/ml
  Extracellular PGE-2, mean: 3.45 pg/μg proteins
PGE-2; [3]
  Extracellular PGE-2, mean: 3.48 pg/μg proteins
PGE-2; [4]
  Extracellular PGE-2, mean: 3.80 pg/μg proteins
IL-1α; IFN-γ 1000
  multiplication of the basal amount of IL-1α: 2.6 fold
IL-1α; IFN-γ 2000
  multiplication of the basal amount of IL-1α: 3.8 fold
IL-1α; K02-1H4, interferon-γ 100 U/ml
  IL-1α (intracellular), mean: 6.80 pg/μg proteins
IL-1α; K02-1H4, interferon-γ 500 U/ml
  IL-1α (intracellular), mean: 8.29 pg/μg proteins
IL-1α; [3]
  IL-1α (intracellular), mean: 11.21 pg/μg proteins
IL-1α; [4]
  IL-1α (intracellular), mean: 12.48 pg/μg proteins

## C[C@@H]1C[C@H]2[C@@H]3CCC4=CC(=O)C=C[C@]4(C)[C@@]3(F)[C@@H](O)C[C@]2(C)[C@@]1(O)C(=O)CO [dexamethasone, Dexamethasone]
NFκB; 0.1 μM
  nuclear translocation of NFκB induced by TNF-α: did not inhibit
NFκB; 0.1 μM dexamethasone
  NFκB (AU), mean: 9.46 AU
  NFκB (AU), single values: 10.94 AU and 7.3 AU and 9.90 AU and 9.67 AU
  NFκB, % control: 99%

## C[C@H]1[C@H](C)CC[C@]2(C(=O)O[C@@H]3O[C@H](CO[C@@H]4O[C@H](CO)[C@@H](O[C@@H]5O[C@H](C)[C@H](O)[C@@H](O)[C@H]5O)[C@H](O)[C@H]4O)[C@@H](O)[C@H](O)[C@H]3O)CC[C@]3(C)C(=CC[C@@H]4[C@@]5(C)C[C@@H](O)[C@H](O)[C@@](C)(CO)[C@@H]5CC[C@]43C)[C@H]12 [Asiaticoside, asiaticoside]
MMP-1; 0.2 mg/ml
  Production of MMP-1, (+) TNF-α, mean: 9.96 ng MMP-1/ml
MMP-1; 0.5 mg/ml
  Production of MMP-1, (+) TNF-α, mean: 6.18 ng MMP-1/ml
MMP-1; 1.0 mg/ml
  Production of MMP-1, (+) TNF-α, mean: 3.40 ng MMP-1/ml
MMP-1; C1 = 0.2 mg/ml
  decrease in the amount of MMP-1: 18%
MMP-1; C2 = 0.5 mg/ml
  decrease in the amount of MMP-1: 49%
MMP-1; C3 = 1.0 mg/ml
  decrease in the amount of MMP-1: 72%
Human fibroblasts
  Maximum NonCytotoxic Dose (NCD): 1 mg/mL
Human fibroblasts; 48 h, 1 mg/ml
  decrease of cell viability: 12%
Human fibroblasts; 10
  Viability (24 h): 98%
Human fibroblasts; 25
  Viability (24 h): 101%
Human fibroblasts; 50
  Viability (24 h): 101%
Human fibroblasts; 100
  Viability (24 h): 101%
Human fibroblasts; 250
  Viability (24 h): 101%
Human fibroblasts; 500
  Viability (24 h): 97%
Human fibroblasts; 1000
  Viability (24 h): 93%
Human fibroblasts; 48 h, 10
  Viability (48 h): 108%
Human fibroblasts; 48 h, 25
  Viability (48 h): 107%
Human fibroblasts; 48 h, 50
  Viability (48 h): 106%
Human fibroblasts; 48 h, 75
  Viability (48 h): 104%
Human fibroblasts; 48 h, 100
  Viability (48 h): 102%
Human fibroblasts; 48 h, 250
  Viability (48 h): 99%
Human fibroblasts; 48 h, 500
  Viability (48 h): 93%
Human fibroblasts; 48 h, 750
  Viability (48 h): 90%
Human fibroblasts; 48 h, 1000
  Viability (48 h): 88%
Human fibroblasts; contact for 24 h, 5 to 1000 μg/ml
  cytotoxic effect: no significant cytotoxic effect
Human fibroblasts; incubation for 48 h
  nontoxic concentrations: below 1 mg/ml
TIMP-1; 0.2 mg/ml
  Production of TIMP-1, (+) TNF-α, mean: 51.01 ng TIMP-1/ml
TIMP-1; 0.5 mg/ml
  Production of TIMP-1, (+) TNF-α, mean: 50.36 ng TIMP-1/ml
TIMP-1; 1.0 mg/ml
  Production of TIMP-1, (+) TNF-α, mean: 48.82 ng TIMP-1/ml
TIMP-1; within the range of concentrations tested (0.2-1.0 mg/ml)
  effect with respect to the production of TIMP-1: no effect
Solubility
  solubility: organosoluble
[2]
  viability of the treated cultures after treatment with TNF-α: not modified
